Measurements reported in ChEMBL document CHEMBL1154938 (Bioorg Med Chem Lett, 2010).

Experiments:
[1] = target: C-C chemokine receptor type 5 (Homo sapiens, UniProt P51681); assay: Displacement of […] from human CCR5 receptor coexpressed with Galphai6 in CHO cells after 2 hrs by scintillation counting; type: cell-based
[2] = test system: Human immunodeficiency virus 1; assay: Antiviral activity against CCR5-tropic recombinant HIV1 NLBal virus infected in JC53-BL cells assessed as inhibition of viral replication after 3 days by luciferase reporter gene assay; type: functional, organism-based; conditions: Human immunodeficiency virus 1, NLBal, JC53BL, 72 h

Chain of C-C chemokine receptor type 5 (P51681 whole entry): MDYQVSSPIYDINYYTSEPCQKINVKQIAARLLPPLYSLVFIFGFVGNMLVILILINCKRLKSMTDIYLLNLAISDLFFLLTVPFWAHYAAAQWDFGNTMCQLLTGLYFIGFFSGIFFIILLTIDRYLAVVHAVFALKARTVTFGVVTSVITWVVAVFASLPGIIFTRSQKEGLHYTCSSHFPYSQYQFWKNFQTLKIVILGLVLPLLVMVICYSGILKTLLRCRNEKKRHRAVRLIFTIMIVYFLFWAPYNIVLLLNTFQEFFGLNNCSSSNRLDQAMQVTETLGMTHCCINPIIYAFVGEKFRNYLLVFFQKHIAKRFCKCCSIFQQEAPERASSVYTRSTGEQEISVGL

SMILES | IC50 [1] | IC50 [2]
Cc1nnc(C)n1[C@H]1C[C@H]2CC[C@@H](C1)N2CC[C@H](NC(=O)C1CCOCC1)c1cccc(F)c1 | 13 nM | 220 nM
Cc1nnc(C)n1[C@H]1C[C@@H]2CN(CC[C@H](NC(=O)C3CCOCC3)c3cccc(F)c3)C[C@@H]2C1 | 43 nM | ≥ 625 nM
Cc1nnc(C)n1C1CCN(CC[C@H](NC(=O)C2CCC(F)(F)CC2)c2cccc(F)c2)CC1 | 38 nM | ≥ 625 nM
Cc1nnc(C)n1[C@H]1C[C@H]2CC[C@@H](C1)N2CC[C@H](NC(=O)C1CC(F)(F)C1)c1cccc(F)c1 | 5 nM | 24 nM
Cc1nnc(C)n1[C@H]1C[C@H]2CC[C@@H](C1)N2CC[C@H](NC(=O)C1CCOC1)c1cccc(F)c1 (some centres not stated) | 7 nM | 62 nM
Cc1nnc(C)n1[C@H]1C[C@H]2CC[C@@H](C1)N2CC[C@H](NC(=O)C1CCC(F)(F)CC1)c1cccc(F)c1 | 5 nM | 5 nM
Cc1nnc(C)n1C1CCN(CC[C@H](NC(=O)C2CCOC2)c2cccc(F)c2)CC1 (some centres not stated) | – | ≥ 625 nM
Cc1nnc(C)n1[C@@H]1C[C@@H]2CN(CC[C@H](NC(=O)C3CCOC3)c3cccc(F)c3)C[C@@H]2C1 (some centres not stated) | 18 nM | 210 nM
Cc1nnc(C)n1[C@@H]1C[C@@H]2CN(CC[C@H](NC(=O)C3CCOCC3)c3cccc(F)c3)C[C@@H]2C1 | 30 nM | ≥ 625 nM

More lines, now with the values ahead:

IC50 [1] | IC50 [2] | SMILES
– | 81 nM | Cc1nnc(C)n1[C@H]1C[C@@H]2CN(CC[C@H](NC(=O)C3CCC(F)(F)CC3)c3cccc(F)c3)C[C@@H]2C1
6 nM | 200 nM | Cc1nnc(C)n1[C@H]1C[C@@H]2CN(CC[C@H](NC(=O)C3CC(F)(F)C3)c3cccc(F)c3)C[C@@H]2C1
8 nM | 41 nM | Cc1nnc(C)n1[C@@H]1C[C@@H]2CN(CC[C@H](NC(=O)C3CCC(F)(F)CC3)c3cccc(F)c3)C[C@@H]2C1
– | 2.8 nM | Cc1nnc(C(C)C)n1[C@H]1C[C@H]2CC[C@@H](C1)N2CC[C@H](NC(=O)C1CCC(F)(F)CC1)c1ccccc1 [MARAVIROC]
35 nM | 40 nM | Cc1nnc(C)n1[C@H]1C[C@@H]2CN(CC[C@H](NC(=O)C3CCOC3)c3cccc(F)c3)C[C@@H]2C1 (some centres not stated)
6 nM | 74 nM | Cc1nnc(C)n1[C@@H]1C[C@@H]2CN(CC[C@H](NC(=O)C3CC(F)(F)C3)c3cccc(F)c3)C[C@@H]2C1
